Values of other authors as cited in patent US12318421B2 (priority 2020, dated 2025).

Molecular target: α-glucosidase
Conditions: values disclosed in references

For `O=c1cc(-c2ccc(O)cc2)oc2cc(O)c([C@@H]3O[C@H](CO)[C@@H](O)[C@H](O)[C@H]3O)c(O)c12` [isovitexin], the “IC50 of α-glucosidase activity disclosed in references” value is given as 46.9 µg/mL.
